Activity calls are given as the source filed them. For most assays here, no stated cut-off is given here; in the data, actives have a measured EC50 and inactives only a lower limit.
Legend:
[1] = molecular target: Mitogen-activated protein kinase 10 (Homo sapiens, UniProt P53779); assay: Dose response biochemical screening assay for inhibitors of c-Jun N-Terminal Kinase 3 (JNK3). [Related pubchem assays: 746 ]
[2] = molecular target: T1, Mannose-6-phosphate isomerase (Homo sapiens, UniProt P34949); assay: MPI enzyme activity inhibition – biochemical, fluorescence intensity, coupled assay, primary screen (AID 1209)
T1 sequence (P34949 whole entry): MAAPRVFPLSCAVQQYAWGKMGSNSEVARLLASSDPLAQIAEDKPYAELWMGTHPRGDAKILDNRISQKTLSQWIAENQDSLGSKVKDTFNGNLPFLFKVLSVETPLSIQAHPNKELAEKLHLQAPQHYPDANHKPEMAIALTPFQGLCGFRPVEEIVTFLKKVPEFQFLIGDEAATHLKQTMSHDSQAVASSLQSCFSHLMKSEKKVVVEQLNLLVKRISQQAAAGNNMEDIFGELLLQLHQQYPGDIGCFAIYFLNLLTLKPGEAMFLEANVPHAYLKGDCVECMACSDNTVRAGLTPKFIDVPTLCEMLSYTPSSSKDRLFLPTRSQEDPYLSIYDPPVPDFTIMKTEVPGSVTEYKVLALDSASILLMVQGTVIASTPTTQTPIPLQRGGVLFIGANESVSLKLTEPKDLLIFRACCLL

[3] = molecular target: T1, Mannose-6-phosphate isomerase; assay: MPI inhibition at elevated mannose 6-phosphate – biochemical, fluorescence intensity, high mannose 6-phosphate, primary screen (AID 1220)
[4] = molecular target: T2, Calpain-2 catalytic subunit (Sus scrofa, UniProt P43367); assay: m-calpain protease blockers, concentration series – biochemical, fluorogenic peptide substrate, dose response (AID 1420); format: functional
T2 sequence (P43367 whole entry): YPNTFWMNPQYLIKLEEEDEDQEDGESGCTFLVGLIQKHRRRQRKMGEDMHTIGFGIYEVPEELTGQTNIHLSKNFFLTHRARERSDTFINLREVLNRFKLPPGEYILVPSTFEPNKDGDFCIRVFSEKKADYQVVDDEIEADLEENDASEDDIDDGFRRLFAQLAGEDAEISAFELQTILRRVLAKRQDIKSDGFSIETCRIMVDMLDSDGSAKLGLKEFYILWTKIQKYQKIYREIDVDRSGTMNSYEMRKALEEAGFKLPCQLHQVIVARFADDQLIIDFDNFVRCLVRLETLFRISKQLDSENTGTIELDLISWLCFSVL

Vero = assay: viability of Vero cells under compound – cytotoxicity control for flavivirus capping enzyme inhibitors (AID 588742); format: functional; details: Chlorocebus sabaeus
[5] = viability loss in THP-1 monocytes – THP-1 cells, cytotoxicity control for Vif-APOBEC3G degradation inhibitor project, dose response (AID 1117359); format: functional; details: THP-1
[6] = Luminescence Cell-Based Dose Response to Identify Activators of Luciferase Translation or Activity in H4-C Neuroglioblastoma Cells. [Related pubchem assays: 1829 (Project Summary), 1814 (Primary HTS)]; format: functional
[7] = Luminescence Cell-Based Dose Response HTS to Identify Activators of Luciferase Translation or Activity in H4 […] Cells. [Related pubchem assays: 1829 (Project Summary), 1814 (Primary HTS)]; format: functional
H4 = assay: Luminescence Cell-Based Dose Response HTS to Identify Activators of 5'UTR Stem-Loop Driven Prion Protein mRNA Translation in H4 Neuroglioblastoma Cells. [Related pubchem assays: 1829 (Project Summary), 1814 (Primary HTS)]; format: functional; details: Homo sapiens
[8] = Luminescence Cell-Based Dose Response to Identify Activators of 5'UTR Stem-Loop Driven Prion Protein mRNA Translation in H4-C Neuroglioblastoma Cells. [Related pubchem assays: 1829 (Project Summary), 1814 (Primary HTS)]; format: functional
[9] = Luminescence Cell-Based Dose Confirmation to Identify Activators of 5'UTR Stem-Loop Driven Alpha-Synuclein mRNA Translation in H4 Neuroglioblastoma Cells. [Related pubchem assays: 1829 (Project Summary), 1814 (Primary HTS)]; format: functional
[10] = Luminescence Cell-Based Dose Confirmation HTS to Identify Activators of 5'UTR Stem-Loop Driven Alpha-Synuclein mRNA Translation in H4 Neuroglioblastoma Cells. [Related pubchem assays: 1829 (Project Summary), 1814 (Primary HTS)]; format: functional
INS1 = assay: INS-1E survival protection against cytokine death – cell-based, luminescence, retest, dose response (AID 449756); format: functional; details: Rattus norvegicus;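 further: cell death triggered by IL-1 beta plus TNF-alpha plus IFN-gamma mixture; protective hits raise ATP signal compared with cytokine alone wells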
[11] = Trypanosoma cruzi growth suppression in host cells – NIH3T3 host cells, beta-gal luminescence, confirmation (AID 2044); format: functional, cell-based;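 further: intracellular parasites grown in NIH/3T3 mouse fibroblasts as host cells; luminescent beta-galactosidase reporter signal from transgenic T. cruzi replicating inside host cells; inhibitors lower the luminescence signal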
[12] = luciferase reporter signal suppression in cells – H4 neuroglioma cells, luminescence, dose response (AID 1990); format: functional, cell-based
[13] = NIH3T3 cell viability loss – ATP luminescence, mouse fibroblasts, counter-screen, dose response (AID 2010); format: functional, cell-based;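 further: cells exposed to compound for about 90 hours before reading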
[14] = Luminescence Cell-Based Dose Response HTS to Identify Inhibitors of 5'UTR Stem-Loop Driven Prion Protein mRNA Translation in H4 Neuroglioblastoma Cells. [Related pubchem assays: 1827 (Project Summary), 1813 (Primary HTS)]; format: functional
[15] = alpha-synuclein stem-loop luciferase translation blockers – H4 neuroglioma cells, luminescence, confirmation (AID 1988); format: functional, cell-based
[16] = molecular target: Luciferin 4-monooxygenase (Photinus pyralis, UniProt P08659); assay: inhibition of purified Photinus pyralis luciferase – biochemical, luminescence, dose response (AID 1891)
[17] = Luminescence-based cell-based high throughput dose response assay to identify activators of the DAF-12 from the parasite S. stercoralis (ssDAF-12).; format: functional
[18] = molecular target: T3, Rac GTPase-activating protein 1 (Homo sapiens, UniProt Q9H0H5); assay: blockers of MgcRacGAP-driven Rac1 GTP hydrolysis – biochemical, ADP Hunter fluorescence, primary and confirmatory, confirmation (AID 624330); format: functional
T3 sequence (Q9H0H5 whole entry): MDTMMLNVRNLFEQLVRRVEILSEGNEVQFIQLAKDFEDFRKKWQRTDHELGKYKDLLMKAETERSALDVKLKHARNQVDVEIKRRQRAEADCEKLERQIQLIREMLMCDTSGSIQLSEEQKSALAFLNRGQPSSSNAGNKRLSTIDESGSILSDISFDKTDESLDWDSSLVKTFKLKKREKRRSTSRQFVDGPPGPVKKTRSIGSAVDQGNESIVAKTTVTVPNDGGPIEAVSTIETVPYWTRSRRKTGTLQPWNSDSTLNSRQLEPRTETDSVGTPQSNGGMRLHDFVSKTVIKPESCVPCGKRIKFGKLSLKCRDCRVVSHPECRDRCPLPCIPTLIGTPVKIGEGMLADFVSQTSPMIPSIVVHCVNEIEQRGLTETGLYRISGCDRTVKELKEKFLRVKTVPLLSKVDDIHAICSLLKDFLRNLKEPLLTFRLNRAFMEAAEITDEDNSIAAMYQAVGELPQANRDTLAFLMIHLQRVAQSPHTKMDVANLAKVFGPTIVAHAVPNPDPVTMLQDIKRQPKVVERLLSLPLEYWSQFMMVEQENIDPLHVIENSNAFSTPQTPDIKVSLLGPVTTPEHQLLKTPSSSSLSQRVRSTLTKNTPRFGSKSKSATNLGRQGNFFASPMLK

[19] = molecular target: T4, Oxysterols receptor LXR-beta (Homo sapiens, UniProt P55055); assay: LXR agonists, Gal4 luciferase reporter, dose response, counter-screen for ssDAF-12 agonist project, cell-based, luminescence, HEK293, S. stercoralis campaign (AID 720737); format: functional; details: read-out: IC50 (the source's name)
T4 sequence (P55055 whole entry): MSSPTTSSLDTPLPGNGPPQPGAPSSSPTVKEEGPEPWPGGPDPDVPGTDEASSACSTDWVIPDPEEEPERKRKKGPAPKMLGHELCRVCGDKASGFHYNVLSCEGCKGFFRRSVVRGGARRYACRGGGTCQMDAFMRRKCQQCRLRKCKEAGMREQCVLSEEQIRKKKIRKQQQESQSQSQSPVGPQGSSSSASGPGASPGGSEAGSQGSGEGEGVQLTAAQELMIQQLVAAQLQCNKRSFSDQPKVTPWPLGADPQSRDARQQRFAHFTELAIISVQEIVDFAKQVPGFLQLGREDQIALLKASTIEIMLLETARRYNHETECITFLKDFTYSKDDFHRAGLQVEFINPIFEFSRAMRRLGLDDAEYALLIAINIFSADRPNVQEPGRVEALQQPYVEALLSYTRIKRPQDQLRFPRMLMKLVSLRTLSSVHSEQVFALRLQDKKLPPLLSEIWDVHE

[20] = Luminescence Cell-Based Dose Confirmation HTS to Identify Inhibitors of Platelet Dense Granule Release. [Related pubchem assays: 1663 (Primary HTS), 1678 (Summary of Project)]; format: functional
[21] = molecular target: Induced myeloid leukemia cell differentiation protein Mcl-1 (Homo sapiens, UniProt Q07820); format: functional
Large T antigen = Large T antigen (Simian virus 40, UniProt P03070); format: functional, Betapolyomavirus macacae;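 further: Confirmatory-stage PubChem screen for compounds that inhibit SV40 T antigen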
Streptokinase A = molecular target: T5, Streptokinase A (Streptococcus pyogenes serotype M1, UniProt P10520); assay: viability-normalized secreted streptokinase activity reduction – plasminogen activation absorbance, OD405, dose response (AID 1914); format: functional, Streptococcus pyogenes M1 GAS;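 further: secreted streptokinase activity via plasminogen activation per viability signal from cell pellet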
T5 sequence (P10520 whole entry): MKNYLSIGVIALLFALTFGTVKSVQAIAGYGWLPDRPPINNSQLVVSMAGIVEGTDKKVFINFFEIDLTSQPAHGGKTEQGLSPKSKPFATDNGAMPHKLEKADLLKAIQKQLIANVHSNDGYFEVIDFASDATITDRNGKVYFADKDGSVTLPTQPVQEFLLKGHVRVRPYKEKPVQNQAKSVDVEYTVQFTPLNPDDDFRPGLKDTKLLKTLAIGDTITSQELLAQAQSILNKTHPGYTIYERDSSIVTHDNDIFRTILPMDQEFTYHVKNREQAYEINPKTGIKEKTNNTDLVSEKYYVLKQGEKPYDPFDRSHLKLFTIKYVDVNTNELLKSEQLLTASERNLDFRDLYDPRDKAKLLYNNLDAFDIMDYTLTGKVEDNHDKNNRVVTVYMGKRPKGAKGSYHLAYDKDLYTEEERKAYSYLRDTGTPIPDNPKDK

[22] = system: Streptococcus sp. 'group A'; assay: Streptococcus pyogenes SK(-)GAS viability under kanamycin – luminescence, BacTiterGlo, confirmation, counter-screen for streptokinase expression inhibitor project, dose response (AID 1900); format: functional, organism-based
Streptococcus = assay: GAS UMAA2166 growth inhibition – luminescence, BacTiterGlo, counter-screen for streptokinase expression inhibitor project, dose response (AID 1915); format: functional, organism-based;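 further: potency for reduction of bacterial viability or growth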

Mitogen-activated protein kinase 10, sequence (P53779 whole entry): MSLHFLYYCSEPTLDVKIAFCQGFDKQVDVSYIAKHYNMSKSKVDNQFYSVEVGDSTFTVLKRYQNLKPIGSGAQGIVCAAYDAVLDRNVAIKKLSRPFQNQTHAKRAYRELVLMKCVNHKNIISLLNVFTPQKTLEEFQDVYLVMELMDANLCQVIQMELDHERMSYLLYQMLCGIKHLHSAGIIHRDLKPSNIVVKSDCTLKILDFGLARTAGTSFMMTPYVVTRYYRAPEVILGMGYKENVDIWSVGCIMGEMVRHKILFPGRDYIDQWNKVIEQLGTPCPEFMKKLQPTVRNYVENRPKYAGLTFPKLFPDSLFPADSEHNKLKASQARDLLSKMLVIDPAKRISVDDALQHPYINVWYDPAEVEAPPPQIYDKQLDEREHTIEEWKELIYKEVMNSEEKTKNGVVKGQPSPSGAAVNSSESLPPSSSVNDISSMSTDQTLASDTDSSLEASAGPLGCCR
Induced myeloid leukemia cell differentiation protein Mcl-1, sequence (Q07820 whole entry): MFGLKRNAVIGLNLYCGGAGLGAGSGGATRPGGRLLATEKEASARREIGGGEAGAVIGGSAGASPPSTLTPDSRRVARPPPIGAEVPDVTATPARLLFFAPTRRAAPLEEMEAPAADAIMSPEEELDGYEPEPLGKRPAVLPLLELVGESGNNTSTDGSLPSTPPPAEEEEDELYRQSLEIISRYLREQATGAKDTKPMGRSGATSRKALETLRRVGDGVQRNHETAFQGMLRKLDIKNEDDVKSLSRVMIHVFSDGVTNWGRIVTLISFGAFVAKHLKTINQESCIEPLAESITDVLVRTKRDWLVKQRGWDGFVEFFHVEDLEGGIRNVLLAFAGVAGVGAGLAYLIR
Large T antigen, sequence (P03070 whole entry): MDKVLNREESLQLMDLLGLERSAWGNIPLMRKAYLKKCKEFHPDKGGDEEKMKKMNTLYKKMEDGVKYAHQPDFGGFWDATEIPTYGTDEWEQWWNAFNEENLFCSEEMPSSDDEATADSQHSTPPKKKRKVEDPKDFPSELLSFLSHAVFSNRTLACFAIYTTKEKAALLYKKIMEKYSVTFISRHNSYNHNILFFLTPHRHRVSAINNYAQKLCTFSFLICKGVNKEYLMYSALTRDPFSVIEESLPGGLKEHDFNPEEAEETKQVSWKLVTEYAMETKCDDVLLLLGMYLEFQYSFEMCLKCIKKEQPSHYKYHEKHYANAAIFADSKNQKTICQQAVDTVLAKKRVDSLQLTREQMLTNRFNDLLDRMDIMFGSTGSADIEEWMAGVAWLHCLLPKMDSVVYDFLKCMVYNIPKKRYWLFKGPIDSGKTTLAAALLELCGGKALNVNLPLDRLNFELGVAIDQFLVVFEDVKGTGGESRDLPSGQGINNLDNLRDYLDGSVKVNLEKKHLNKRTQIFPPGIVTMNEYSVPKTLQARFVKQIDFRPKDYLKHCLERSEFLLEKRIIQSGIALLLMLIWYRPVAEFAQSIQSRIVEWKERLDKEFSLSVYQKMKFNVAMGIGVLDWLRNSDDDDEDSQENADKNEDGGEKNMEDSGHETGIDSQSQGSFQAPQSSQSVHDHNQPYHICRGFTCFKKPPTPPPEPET
Luciferin 4-monooxygenase, sequence (P08659 whole entry): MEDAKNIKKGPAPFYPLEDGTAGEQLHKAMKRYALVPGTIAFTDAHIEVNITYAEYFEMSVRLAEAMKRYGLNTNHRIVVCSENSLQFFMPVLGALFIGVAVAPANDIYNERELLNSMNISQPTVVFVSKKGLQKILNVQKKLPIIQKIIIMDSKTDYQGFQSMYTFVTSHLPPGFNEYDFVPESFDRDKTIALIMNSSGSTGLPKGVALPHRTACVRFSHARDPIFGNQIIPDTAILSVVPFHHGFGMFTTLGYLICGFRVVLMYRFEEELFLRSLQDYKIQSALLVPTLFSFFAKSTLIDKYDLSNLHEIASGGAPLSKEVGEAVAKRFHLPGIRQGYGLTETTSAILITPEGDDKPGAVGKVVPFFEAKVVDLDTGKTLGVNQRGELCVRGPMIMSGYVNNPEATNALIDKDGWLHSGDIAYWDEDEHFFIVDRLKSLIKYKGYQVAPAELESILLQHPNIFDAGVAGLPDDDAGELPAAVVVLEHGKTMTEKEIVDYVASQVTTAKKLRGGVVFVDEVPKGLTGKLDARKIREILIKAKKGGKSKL

Compound: Cn1c(C(=O)N2CCN(Cc3ccc4c(c3)OCO4)CC2)cc2c(=O)n(C)c3ccccc3c21
- IC50 [1]: 72.6 µM (not active)

Compound: O=C(Nc1nncs1)c1ccc(N2C(=O)C3C4C=CC(C4)C3C2=O)cc1 (stereo not given)
- IC50 [1]: 62.9 µM (not active)

Compound: CC(=O)C(C(C)=O)c1c(Cl)c(O)c(O)c2c(C(=O)c3ccccc3)coc12
- IC50 [2]: > 50 µM (not active)
- IC50 [3]: > 50 µM (not active)

Compound: COc1cc(CNc2ccc(O)cc2)cc(Br)c1OCc1ccccc1
- IC50 [4]: 13 µM (not active)
- CC50 (Vero): > 40 µM (active)
- CC50 [5]: > 40 µM (active)

Compound: C#CCSc1nnc(-c2ccc(OC)cc2)o1
- EC50 [6]: 5.49 µM (active)
- EC50 [7]: < 0.1 µM (inconclusive)
- EC50 (H4): > 120 µM (not active)
- EC50 [8]: 3.33 µM (active)
- EC50 [9]: 0.138 µM (active)
- EC50 [10]: 7.23 µM (active)

Compound: O=C(CN1C(=O)/C(=C\c2cccs2)SC1=S)Nc1cccc(C(=O)O)c1
- CC50 [5]: > 40 µM (active)

Compound: O=C(NCCSc1ccccc1)c1ccccc1
- EC50 [6]: 0.347 µM (active)
- EC50 [7]: < 0.1 µM (inconclusive)
- EC50 (H4): > 120 µM (not active)
- EC50 [8]: 0.281 µM (active)
- EC50 [9]: 0.198 µM (active)

Compound: O=[N+]([O-])c1ccccc1-c1cc(-c2ccccc2)cc(-c2ccccc2)[n+]1Cc1ccccc1Cl.[O-][Cl+3]([O-])([O-])[O-]
- AC50 (INS1): 2.14 µM (active)
- EC50 [11]: < 0.1 µM (active)
- EC50 [12]: 11.3 µM (active)
- EC50 (cells): 0.074 µM (active)
- EC50 [13]: > 60 µM (not active)
- EC50 [14]: > 120 µM (not active)
- EC50 [15]: > 120 µM (not active)

Compound: Nc1ccc(-n2c(N)c(C(=O)NCc3ccc4c(c3)OCO4)c3nc4ccccc4nc32)cc1
- IC50 [1]: > 93.1 µM (not active)

Compound: COc1ccc(/C=N/Nc2nc3ccccc3s2)cc1O
- EC50 [16]: 0.947 µM (active)
- IC50 [17]: > 67.5 µM (inactive)
- IC50 [18]: 102 µM (active)
- EC50 [19]: > 67.5 µM (inactive)
- EC50 [20]: 5.38 µM (active)

Compound: C1CCC(OCCN2CCN(CCOC3CCCCC3)CC2)CC1
- EC50 [11]: < 0.1 µM (active)
- EC50 (cells): 0.067 µM (active)
- EC50 [13]: > 30 µM (not active)

Compound: Cc1ccc(N2C(=O)CC(Sc3nc[nH]n3)C2=O)cc1 (stereo not given)
- IC50 [2]: > 50 µM (not active)

Compound: O=C(OCC1O[C@@H](OC(=O)c2cc(O)c(O)c(O)c2)[C@@H](OC(=O)c2cc(O)c(O)c(O)c2)[C@@H](OC(=O)c2cc(O)c(O)c(O)c2)[C@@H]1OC(=O)c1cc(O)c(O)c(O)c1)c1cc(O)c(O)c(O)c1 (stereo not given in full)
- IC50 [21]: 4.54 µM (active)
- CC50 [5]: 20.6 µM (active)
- IC50 (Large T antigen): 4.51 µM (active)

Compound: O=C(N/N=C/c1ccc([N+](=O)[O-])o1)c1cn(-c2ccccc2)nc1-c1ccc(F)cc1
- EC50 (Streptokinase A): > 150 µM (not active)
- EC50 [11]: < 0.1 µM (active)
- EC50 (cells): 0.03 µM (active)
- EC50 [22]: 0.841 µM (active)
- EC50 [13]: > 60 µM (not active)
- EC50 (Streptococcus): 2.99 µM (active)

Reference: ChEMBL document CHEMBL1201862, “PubChem BioAssay data set” (2004)
